From patent US10004701B2, “Methods and compositions for treating infection” (UNIVERSITY OF ROCHESTER, priority 2012, dated 2018)
Like-named read-outs stand apart in the source and are kept apart here.

Experiments:
Assay in all cases: AK assay 384-well format, Prestwick library screening
E. faecium = type: cell-based, Enterococcus faecium; conditions: Enterococcus faecium, 3 h
[1] = system: S. aureus strain USA300-0114; type: cell-based, Staphylococcus aureus; conditions: Staphylococcus aureus, USA300, 3 h
K. pneumoniae = type: cell-based, Klebsiella pneumoniae; conditions: Klebsiella pneumoniae, 3 h
[2] = system: A. baumannii strain 98-37-09; type: cell-based, Acinetobacter baumannii; conditions: Acinetobacter baumannii, 983709, 3 h
P. aeruginosa = type: cell-based, Pseudomonas aeruginosa; conditions: Pseudomonas aeruginosa, 3 h
E. cloacae = type: cell-based, Enterobacter cloacae; conditions: Enterobacter cloacae, 3 h
E. coli = type: cell-based, Escherichia coli; conditions: Escherichia coli, 3 h
[3] = planktonic E. faecium, 50 μM final drug concentration, 384-well, cutoff for positive-scoring molecules 3-fold increase, read-out: AK-based Prestwick Library Screening Results: E. faecium (increase in extracellular AK activity)
[4] = planktonic S. aureus, 50 μM final drug concentration, 384-well, cutoff for positive-scoring molecules 3-fold increase, read-out: AK-based Prestwick Library Screening Results: S. aureus (increase in extracellular AK activity)
[5] = planktonic K. pneumoniae, 50 μM final drug concentration, 384-well, cutoff for positive-scoring molecules 3-fold increase, read-out: AK-based Prestwick Library Screening Results: K. pneumoniae (increase in extracellular AK activity)
[6] = planktonic A. baumannii, 50 μM final drug concentration, 384-well, cutoff for positive-scoring molecules 3-fold increase, read-out: AK-based Prestwick Library Screening Results: A. baumannii (increase in extracellular AK activity)
[7] = planktonic P. aeruginosa, 50 μM final drug concentration, 384-well, cutoff for positive-scoring molecules 3-fold increase, read-out: AK-based Prestwick Library Screening Results: P. aeruginosa (increase in extracellular AK activity)
[8] = planktonic E. cloacae, 50 μM final drug concentration, 384-well, cutoff for positive-scoring molecules 3-fold increase, read-out: AK-based Prestwick Library Screening Results: E. cloacae (increase in extracellular AK activity)
[9] = planktonic E. coli, 50 μM final drug concentration, 384-well, cutoff for positive-scoring molecules 3-fold increase, read-out: AK-based Prestwick Library Screening Results: E. coli (increase in extracellular AK activity)
[10] = 50 μM final drug concentration, planktonic, cutoff for positive 3-fold increase, read-out: AK-based Prestwick Library Screening Results, E. faecium (fold increase in extracellular AK activity)
[11] = 50 μM final drug concentration, planktonic, cutoff for positive 3-fold increase, read-out: AK-based Prestwick Library Screening Results, S. aureus (fold increase in extracellular AK activity)
[12] = 50 μM final drug concentration, planktonic, cutoff for positive 3-fold increase, read-out: AK-based Prestwick Library Screening Results, K. pneumoniae (fold increase in extracellular AK activity)
[13] = 50 μM final drug concentration, planktonic, cutoff for positive 3-fold increase, read-out: AK-based Prestwick Library Screening Results, A. baumannii (fold increase in extracellular AK activity)
[14] = 50 μM final drug concentration, planktonic, cutoff for positive 3-fold increase, read-out: AK-based Prestwick Library Screening Results, P. aeruginosa (fold increase in extracellular AK activity)
[15] = 50 μM final drug concentration, planktonic, cutoff for positive 3-fold increase, read-out: AK-based Prestwick Library Screening Results, E. cloacae (fold increase in extracellular AK activity)
[16] = 50 μM final drug concentration, planktonic, cutoff for positive 3-fold increase, read-out: AK-based Prestwick Library Screening Results, E. coli (fold increase in extracellular AK activity)
[17] = 50 μM final drug concentration, planktonic, cutoff for positive-scoring molecules 3-fold increase, read-out: AK-based Prestwick Library Screening Results, E. faecium (fold increase in extracellular AK activity)
[18] = 50 μM final drug concentration, planktonic, cutoff for positive-scoring molecules 3-fold increase, read-out: AK-based Prestwick Library Screening Results, S. aureus (fold increase in extracellular AK activity)
[19] = 50 μM final drug concentration, planktonic, cutoff for positive-scoring molecules 3-fold increase, read-out: AK-based Prestwick Library Screening Results, K. pneumoniae (fold increase in extracellular AK activity)
[20] = 50 μM final drug concentration, planktonic, cutoff for positive-scoring molecules 3-fold increase, read-out: AK-based Prestwick Library Screening Results, A. baumannii (fold increase in extracellular AK activity)
[21] = 50 μM final drug concentration, planktonic, cutoff for positive-scoring molecules 3-fold increase, read-out: AK-based Prestwick Library Screening Results, P. aeruginosa (fold increase in extracellular AK activity)
[22] = 50 μM final drug concentration, planktonic, cutoff for positive-scoring molecules 3-fold increase, read-out: AK-based Prestwick Library Screening Results, E. cloacae (fold increase in extracellular AK activity)
[23] = 50 μM final drug concentration, planktonic, cutoff for positive-scoring molecules 3-fold increase, read-out: AK-based Prestwick Library Screening Results, E. coli (fold increase in extracellular AK activity)

SMILES: COC(=O)C1=C(C)NC(C)=C(C(=O)OC)C1c1ccccc1[N+](=O)[O-] [Nifedipine]
- fold induction at 50 µM (E. faecium; [3]): 0.9
- fold induction at 50 µM [1, 4]: 0.5
- fold induction at 50 µM (K. pneumoniae; [5]): 0.9
- fold induction at 50 µM [2, 6]: 1.5
- fold induction at 50 µM (P. aeruginosa; [7]): 1
- fold induction at 50 µM (E. cloacae; [8]): 1.4
- fold induction at 50 µM (E. coli; [9]): 1.4

SMILES: Cc1c(NC(=O)c2cccnc2)c(=O)n(-c2ccccc2)n1C [Nifenazone]
- fold induction at 50 µM (E. faecium; [3]): 1
- fold induction at 50 µM [1, 4]: 1.3
- fold induction at 50 µM (K. pneumoniae; [5]): 1
- fold induction at 50 µM [2, 6]: 1.6
- fold induction at 50 µM (P. aeruginosa; [7]): 1.2
- fold induction at 50 µM (E. cloacae; [8]): 1.2
- fold induction at 50 µM (E. coli; [9]): 1.2

SMILES: O=C(O)c1cccnc1Nc1cccc(C(F)(F)F)c1 [Niflumic acid]
- fold induction at 50 µM (E. faecium; 50 μM final drug concentration, 384-well format, cutoff for positive-scoring molecules 3-fold increase, read-out: AK-based Prestwick Library Screening Results, E. faecium (increase in extracellular AK activity)): 0.9
- fold induction at 50 µM ([1]; 50 μM final drug concentration, 384-well format, cutoff for positive-scoring molecules 3-fold increase, read-out: AK-based Prestwick Library Screening Results, S. aureus (increase in extracellular AK activity)): 0.7
- fold induction at 50 µM (K. pneumoniae; 50 μM final drug concentration, 384-well format, cutoff for positive-scoring molecules 3-fold increase, read-out: AK-based Prestwick Library Screening Results, K. pneumoniae (increase in extracellular AK activity)): 0.6
- fold induction at 50 µM ([2]; 50 μM final drug concentration, 384-well format, cutoff for positive-scoring molecules 3-fold increase, read-out: AK-based Prestwick Library Screening Results, A. baumannii (increase in extracellular AK activity)): 0.7
- fold induction at 50 µM (P. aeruginosa; 50 μM final drug concentration, 384-well format, cutoff for positive-scoring molecules 3-fold increase, read-out: AK-based Prestwick Library Screening Results, P. aeruginosa (increase in extracellular AK activity)): 0.7
- fold induction at 50 µM (E. cloacae; 50 μM final drug concentration, 384-well format, cutoff for positive-scoring molecules 3-fold increase, read-out: AK-based Prestwick Library Screening Results, E. cloacae (increase in extracellular AK activity)): 0.8
- fold induction at 50 µM (E. coli; 50 μM final drug concentration, 384-well format, cutoff for positive-scoring molecules 3-fold increase, read-out: AK-based Prestwick Library Screening Results, E. coli (increase in extracellular AK activity)): 0.6

SMILES: O=C(N/N=C/c1ccc([N+](=O)[O-])o1)c1ccc(O)cc1 [Nifuroxazide]
- fold induction at 50 µM (E. faecium; [10]): 1
- fold induction at 50 µM [1, 11]: 0.7
- fold induction at 50 µM (K. pneumoniae; [12]): 1.8
- fold induction at 50 µM [2, 13]: 1.1
- fold induction at 50 µM (P. aeruginosa; [14]): 1.2
- fold induction at 50 µM (E. cloacae; [15]): 1.5
- fold induction at 50 µM (E. coli; [16]): 1.2

SMILES: CC1CS(=O)(=O)CCN1/N=C/c1ccc([N+](=O)[O-])o1 (stereo not shown) [Nifurtimox]
- fold induction at 50 µM (E. faecium; planktonic E. faecium, 50 μM final drug concentration, positive cutoff 3-fold increase, read-out: AK-based Prestwick library screening result, E. faecium (fold increase in extracellular AK activity)): 1
- fold induction at 50 µM ([1]; planktonic S. aureus, 50 μM final drug concentration, positive cutoff 3-fold increase, read-out: AK-based Prestwick library screening result, S. aureus (fold increase in extracellular AK activity)): 0.8
- fold induction at 50 µM (K. pneumoniae; planktonic K. pneumoniae, 50 μM final drug concentration, positive cutoff 3-fold increase, read-out: AK-based Prestwick library screening result, K. pneumoniae (fold increase in extracellular AK activity)): 1.2
- fold induction at 50 µM ([2]; planktonic A. baumannii, 50 μM final drug concentration, positive cutoff 3-fold increase, read-out: AK-based Prestwick library screening result, A. baumannii (fold increase in extracellular AK activity)): 1.5
- fold induction at 50 µM (P. aeruginosa; planktonic P. aeruginosa, 50 μM final drug concentration, positive cutoff 3-fold increase, read-out: AK-based Prestwick library screening result, P. aeruginosa (fold increase in extracellular AK activity)): 1.1
- fold induction at 50 µM (E. cloacae; planktonic E. cloacae, 50 μM final drug concentration, positive cutoff 3-fold increase, read-out: AK-based Prestwick library screening result, E. cloacae (fold increase in extracellular AK activity)): 1.3
- fold induction at 50 µM (E. coli; planktonic E. coli, 50 μM final drug concentration, positive cutoff 3-fold increase, read-out: AK-based Prestwick library screening result, E. coli (fold increase in extracellular AK activity)): 1.1

SMILES: CC1(C)NC(=O)N(c2ccc([N+](=O)[O-])c(C(F)(F)F)c2)C1=O [Nilutamide]
- fold induction at 50 µM (E. faecium; 50 μM final drug concentration, […], read-out: AK-based Prestwick Library Screening Results, E. faecium (fold increase in extracellular AK activity)): 1
- fold induction at 50 µM ([1]; 50 μM final drug concentration, […], read-out: AK-based Prestwick Library Screening Results, S. aureus (fold increase in extracellular AK activity)): 1.3
- fold induction at 50 µM (K. pneumoniae; 50 μM final drug concentration, […], read-out: AK-based Prestwick Library Screening Results, K. pneumoniae (fold increase in extracellular AK activity)): 1
- fold induction at 50 µM ([2]; 50 μM final drug concentration, […], read-out: AK-based Prestwick Library Screening Results, A. baumannii (fold increase in extracellular AK activity)): 1.2
- fold induction at 50 µM (P. aeruginosa; 50 μM final drug concentration, […], read-out: AK-based Prestwick Library Screening Results, P. aeruginosa (fold increase in extracellular AK activity)): 1.2
- fold induction at 50 µM (E. cloacae; 50 μM final drug concentration, […], read-out: AK-based Prestwick Library Screening Results, E. cloacae (fold increase in extracellular AK activity)): 1.4
- fold induction at 50 µM (E. coli; 50 μM final drug concentration, […], read-out: AK-based Prestwick Library Screening Results, E. coli (fold increase in extracellular AK activity)): 1.2

SMILES: CS(=O)(=O)Nc1ccc([N+](=O)[O-])cc1Oc1ccccc1 [Nimesulide]
- fold induction at 50 µM (E. faecium; read-out: AK-based Prestwick Library Screening Results, E. faecium (increase in extracellular AK activity)): 0.8
- fold induction at 50 µM ([1]; read-out: AK-based Prestwick Library Screening Results, S. aureus (increase in extracellular AK activity)): 0.7
- fold induction at 50 µM (K. pneumoniae; read-out: AK-based Prestwick Library Screening Results, K. pneumoniae (increase in extracellular AK activity)): 0.7
- fold induction at 50 µM ([2]; read-out: AK-based Prestwick Library Screening Results, A. baumannii (increase in extracellular AK activity)): 0.9
- fold induction at 50 µM (P. aeruginosa; read-out: AK-based Prestwick Library Screening Results, P. aeruginosa (increase in extracellular AK activity)): 0.9
- fold induction at 50 µM (E. cloacae; read-out: AK-based Prestwick Library Screening Results, E. cloacae (increase in extracellular AK activity)): 1.4
- fold induction at 50 µM (E. coli; read-out: AK-based Prestwick Library Screening Results, E. coli (increase in extracellular AK activity)): 0.9

SMILES: COCCOC(=O)C1=C(C)NC(C)=C(C(=O)OC(C)C)C1c1cccc([N+](=O)[O-])c1 (stereo not shown) [Nimodipine]
- fold induction at 50 µM (E. faecium; [17]): 1
- fold induction at 50 µM [1, 18]: 0.7
- fold induction at 50 µM (K. pneumoniae; [19]): 0.7
- fold induction at 50 µM [2, 20]: 1
- fold induction at 50 µM (P. aeruginosa; [21]): 0.9
- fold induction at 50 µM (E. cloacae; [22]): 1.4
- fold induction at 50 µM (E. coli; [23]): 0.9

SMILES: O=C1NCCN1c1ncc([N+](=O)[O-])s1 [Niridazole]
- fold induction at 50 µM (E. faecium; [10]): 1
- fold induction at 50 µM [1, 11]: 1.8
- fold induction at 50 µM (K. pneumoniae; [12]): 6
- fold induction at 50 µM [2, 13]: 1.4
- fold induction at 50 µM (P. aeruginosa; [14]): 1.2
- fold induction at 50 µM (E. cloacae; [15]): 6.1
- fold induction at 50 µM (E. coli; [16]): 13.2

SMILES: COC(=O)C1=C(C)NC(C)=C(C(=O)OCC(C)C)C1c1ccccc1[N+](=O)[O-] (stereo not shown) [Nisoldipine]
- fold induction at 50 µM (E. faecium; [17]): 0.9
- fold induction at 50 µM [1, 18]: 0.4
- fold induction at 50 µM (K. pneumoniae; [19]): 0.7
- fold induction at 50 µM [2, 20]: 1.4
- fold induction at 50 µM (P. aeruginosa; [21]): 0.8
- fold induction at 50 µM (E. cloacae; [22]): 1
- fold induction at 50 µM (E. coli; [23]): 0.9
